How the values were obtained:
Rat intestinal maltase = assay: Inhibition of rat intestinal maltase (natural substrate, glucose release); assay type: biochemical; details: isolated enzyme in vitro; mean of three measurements; read-out: IC50, α-Glucosidase, Rat intestinal maltase
Description: (§1) 4 Enzyme Inhibition Assays
(§2) All rat enzymes were isolated from 18-week-old, male Wistar rats, while human lysosomal α-glucosidase was obtained in commercially available form from Sanoﬁ Genzyme. Inhibition of isolated glucosidases was evaluated as described previously. 3 Brieﬂy, maltase, isomaltase, sucrase, and cellobiase were used as partially puriﬁed tissue extracts. Inhibition assays for each enzyme were performed with the respective natural substrate, and release of d-glucose measured by Glucose B-test (Wako Diagnostics). Assays of rat ER α-glucosidase II and human lysosomal α-glucosidase inhibition were conducted with α-p-nitrophenylglucoside as substrate; 400 mm Na2CO3 was added to quench these reactions, and the extent of hydrolysis was evaluated as absorbance at 400 nm by spectrophotometer.
(§3) ER α-glucosidase I inhibition assays were performed using anthranilic acid-labelled Glc3Man7GlcNAc2 as substrate. After terminating the reaction with acetonitrile, protein was removed by cen-trifugation through a 10 kDa molecular weight cut oﬀ ﬁlter. The amount of hydrolysis was then quantiﬁed by normal phase high performance liquid chromatography analysis of unreacted substrate and product (Glc2Man7GlcNAc2).4
(§4) ER α-glucosidase II inhibition assays using native-like substrates were performed using an-thranilic acid-labelled Glc2Man7GlcNAc2 as substrate. After terminating the reaction with acetonitrile, protein was removed by centrifugation through a 10 kDa molecular weight cut oﬀ ﬁlter. The amount of hydrolysis was then quantiﬁed by normal phase high performance liq-uid chromatography analysis of unreacted substrate and both products (Glc1Man7GlcNAc2

[1] = biological target: T1, Rat liver ER α-glucosidase I (Rattus norvegicus, UniProt O88941); assay: Inhibition of isolated rat liver ER α-glucosidase I (anthranilic acid-labelled Glc3Man7GlcNAc2 substrate, HPLC); assay type: biochemical; details: isolated enzyme in vitro; mean of three measurements
T1 construct: Rat liver ER, I; from tissue; host or cells: liver of male Wistar rats
T1 sequence (O88941 1-834): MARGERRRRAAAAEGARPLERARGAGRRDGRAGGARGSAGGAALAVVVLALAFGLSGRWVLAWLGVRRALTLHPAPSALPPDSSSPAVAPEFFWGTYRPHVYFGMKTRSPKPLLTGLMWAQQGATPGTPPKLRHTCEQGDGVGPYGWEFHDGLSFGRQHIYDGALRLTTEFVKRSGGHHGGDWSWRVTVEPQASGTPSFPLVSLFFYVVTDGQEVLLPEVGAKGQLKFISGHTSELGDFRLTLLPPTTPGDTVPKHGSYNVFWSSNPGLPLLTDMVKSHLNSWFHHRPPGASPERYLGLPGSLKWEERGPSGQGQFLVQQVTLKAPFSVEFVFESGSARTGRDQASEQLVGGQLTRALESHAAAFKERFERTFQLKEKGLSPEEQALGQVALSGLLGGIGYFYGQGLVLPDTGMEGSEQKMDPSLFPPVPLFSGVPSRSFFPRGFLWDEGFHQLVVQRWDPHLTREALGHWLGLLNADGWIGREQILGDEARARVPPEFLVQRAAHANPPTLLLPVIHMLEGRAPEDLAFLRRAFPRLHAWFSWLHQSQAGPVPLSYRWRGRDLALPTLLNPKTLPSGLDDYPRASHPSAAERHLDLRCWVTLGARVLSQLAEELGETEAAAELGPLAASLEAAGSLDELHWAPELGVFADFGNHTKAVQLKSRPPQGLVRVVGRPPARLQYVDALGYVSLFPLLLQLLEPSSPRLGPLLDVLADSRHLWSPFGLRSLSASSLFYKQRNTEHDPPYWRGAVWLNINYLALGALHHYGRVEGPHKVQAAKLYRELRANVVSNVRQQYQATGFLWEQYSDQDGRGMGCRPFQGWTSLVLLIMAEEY
Description: as §1, §2, §3, §4

[2] = biological target: T2, Rat intestinal isomaltase (Rattus norvegicus, UniProt P23739); assay: Inhibition of rat intestinal isomaltase (natural substrate, glucose release); assay type: biochemical; details: isolated enzyme in vitro; mean of three measurements; read-out: IC50, α-Glucosidase, Rat intestinal isomaltase
T2 construct: from tissue; host or cells: intestine of male Wistar rats, partially purified extract
T2 sequence (P23739 whole entry): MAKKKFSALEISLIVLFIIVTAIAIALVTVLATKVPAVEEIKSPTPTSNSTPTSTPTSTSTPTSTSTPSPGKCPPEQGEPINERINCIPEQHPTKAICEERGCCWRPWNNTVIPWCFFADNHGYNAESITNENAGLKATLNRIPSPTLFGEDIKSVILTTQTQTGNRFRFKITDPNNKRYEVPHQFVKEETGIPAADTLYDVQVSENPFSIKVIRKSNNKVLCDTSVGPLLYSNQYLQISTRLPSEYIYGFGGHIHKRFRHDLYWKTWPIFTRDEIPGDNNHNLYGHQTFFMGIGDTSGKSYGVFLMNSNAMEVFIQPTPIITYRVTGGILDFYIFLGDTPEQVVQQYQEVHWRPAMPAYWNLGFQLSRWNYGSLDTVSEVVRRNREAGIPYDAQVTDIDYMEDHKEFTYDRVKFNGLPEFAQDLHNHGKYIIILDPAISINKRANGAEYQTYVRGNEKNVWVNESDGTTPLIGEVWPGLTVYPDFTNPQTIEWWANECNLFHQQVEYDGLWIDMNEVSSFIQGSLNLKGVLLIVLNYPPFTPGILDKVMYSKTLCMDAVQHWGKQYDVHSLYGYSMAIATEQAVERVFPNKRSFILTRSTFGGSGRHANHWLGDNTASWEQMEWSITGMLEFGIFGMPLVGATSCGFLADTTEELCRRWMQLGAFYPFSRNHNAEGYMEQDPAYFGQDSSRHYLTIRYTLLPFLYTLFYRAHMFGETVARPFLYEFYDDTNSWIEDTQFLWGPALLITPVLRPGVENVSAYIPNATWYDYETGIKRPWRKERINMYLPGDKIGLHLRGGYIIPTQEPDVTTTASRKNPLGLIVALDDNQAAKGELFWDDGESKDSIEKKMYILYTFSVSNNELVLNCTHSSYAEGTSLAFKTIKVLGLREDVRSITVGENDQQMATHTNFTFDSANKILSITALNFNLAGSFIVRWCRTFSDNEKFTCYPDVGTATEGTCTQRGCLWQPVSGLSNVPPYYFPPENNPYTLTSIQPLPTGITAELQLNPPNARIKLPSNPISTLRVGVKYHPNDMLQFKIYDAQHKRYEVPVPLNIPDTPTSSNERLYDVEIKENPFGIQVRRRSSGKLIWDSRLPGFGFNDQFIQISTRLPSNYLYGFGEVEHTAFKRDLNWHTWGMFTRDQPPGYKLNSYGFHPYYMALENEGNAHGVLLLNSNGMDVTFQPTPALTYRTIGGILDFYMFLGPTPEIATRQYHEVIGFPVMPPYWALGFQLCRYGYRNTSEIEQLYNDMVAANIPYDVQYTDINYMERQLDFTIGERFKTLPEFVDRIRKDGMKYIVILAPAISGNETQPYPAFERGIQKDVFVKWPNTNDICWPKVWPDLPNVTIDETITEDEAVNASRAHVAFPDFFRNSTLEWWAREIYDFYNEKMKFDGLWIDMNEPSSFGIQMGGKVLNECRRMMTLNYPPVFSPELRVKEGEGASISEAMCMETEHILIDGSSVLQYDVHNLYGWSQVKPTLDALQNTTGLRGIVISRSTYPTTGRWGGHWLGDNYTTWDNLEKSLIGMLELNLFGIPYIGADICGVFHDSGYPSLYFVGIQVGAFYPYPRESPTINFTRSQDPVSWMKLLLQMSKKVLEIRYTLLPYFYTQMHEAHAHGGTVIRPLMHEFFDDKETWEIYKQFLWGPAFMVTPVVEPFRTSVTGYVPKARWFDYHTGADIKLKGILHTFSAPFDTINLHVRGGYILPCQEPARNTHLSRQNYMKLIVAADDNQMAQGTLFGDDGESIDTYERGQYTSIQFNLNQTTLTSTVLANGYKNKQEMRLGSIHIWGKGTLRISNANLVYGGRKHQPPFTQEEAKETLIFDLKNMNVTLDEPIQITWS
Description: as §1, §2, §3, §4

[3] = biological target: T3, Rat liver ER α-glucosidase II (Rattus norvegicus, UniProt A0A8I6GFL3); assay: Inhibition of isolated rat liver ER α-glucosidase II (α-p-nitrophenylglucoside substrate); assay type: biochemical; details: isolated enzyme in vitro; read-out: IC50 with regard to GluII
T3 construct: Rat liver ER, II; from tissue; host or cells: liver of male Wistar rats
T3 sequence (A0A8I6GFL3 33-944): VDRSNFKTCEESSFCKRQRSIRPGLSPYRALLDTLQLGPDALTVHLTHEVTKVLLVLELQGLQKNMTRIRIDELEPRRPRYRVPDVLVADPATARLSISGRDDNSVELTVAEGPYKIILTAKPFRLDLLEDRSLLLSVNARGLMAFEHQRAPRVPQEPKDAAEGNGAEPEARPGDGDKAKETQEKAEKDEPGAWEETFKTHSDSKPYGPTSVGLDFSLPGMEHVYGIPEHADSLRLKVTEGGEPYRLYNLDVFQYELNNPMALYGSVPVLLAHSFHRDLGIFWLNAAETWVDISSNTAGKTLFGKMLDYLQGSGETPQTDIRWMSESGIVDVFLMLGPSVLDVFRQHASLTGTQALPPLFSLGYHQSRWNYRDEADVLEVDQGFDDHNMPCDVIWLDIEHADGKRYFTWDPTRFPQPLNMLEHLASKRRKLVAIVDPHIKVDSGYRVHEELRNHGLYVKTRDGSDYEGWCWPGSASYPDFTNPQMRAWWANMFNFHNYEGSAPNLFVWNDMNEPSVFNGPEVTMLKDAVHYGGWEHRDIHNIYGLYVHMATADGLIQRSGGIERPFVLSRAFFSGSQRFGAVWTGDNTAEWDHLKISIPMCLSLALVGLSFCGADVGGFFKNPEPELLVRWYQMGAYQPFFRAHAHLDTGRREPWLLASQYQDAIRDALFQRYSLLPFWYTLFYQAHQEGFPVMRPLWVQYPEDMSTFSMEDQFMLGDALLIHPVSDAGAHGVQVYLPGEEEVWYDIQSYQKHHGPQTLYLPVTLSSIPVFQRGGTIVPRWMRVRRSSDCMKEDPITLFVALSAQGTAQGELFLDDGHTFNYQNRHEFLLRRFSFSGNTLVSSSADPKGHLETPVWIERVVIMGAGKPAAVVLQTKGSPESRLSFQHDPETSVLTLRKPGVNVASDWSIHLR
T3 sequence (A0A8I6ADW9 1-525 partner): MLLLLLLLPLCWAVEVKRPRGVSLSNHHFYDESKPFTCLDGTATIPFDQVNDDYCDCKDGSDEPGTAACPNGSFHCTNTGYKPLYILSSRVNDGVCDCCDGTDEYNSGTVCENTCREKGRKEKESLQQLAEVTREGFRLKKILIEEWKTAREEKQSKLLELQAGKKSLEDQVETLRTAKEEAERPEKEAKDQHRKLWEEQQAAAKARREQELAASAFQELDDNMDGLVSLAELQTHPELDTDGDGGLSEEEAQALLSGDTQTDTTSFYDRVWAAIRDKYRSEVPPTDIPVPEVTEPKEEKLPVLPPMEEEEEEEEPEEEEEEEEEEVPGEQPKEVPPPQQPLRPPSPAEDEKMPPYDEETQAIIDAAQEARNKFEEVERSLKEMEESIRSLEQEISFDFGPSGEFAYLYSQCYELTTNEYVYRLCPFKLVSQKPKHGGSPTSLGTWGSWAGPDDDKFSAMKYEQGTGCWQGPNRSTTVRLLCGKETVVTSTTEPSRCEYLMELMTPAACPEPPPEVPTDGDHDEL
Description: as §1, §2, §3, §4

[4] = tested on: DENV (serotype 2, strain 16681) in Huh7.5 cells; assay: DENV Huh7.5 antiviral assay (infectious titer by plaque assay); assay type: cell-based, dengue virus; details: MOI 0.1, 48 h, titration of 4 or 50 µm of 3
Description: (§5) Supplemental Figure 3: Antiviral activity of 4 in human hepatoma Huh7.5 cell line.
(§6) (A) Huh7.5 cells were infected with DENV (serotype 2, strain 16681, multiplicity of infection = 0.1) and treated with a titration of ToP-DNJ 4 or 50 µm of tocopherol 3 for 48 h. Infectious virus titer was measured by plaque assay on LLC-MK2 cells. Counts were normalized to 100% for untreated samples.
(§7) DENV eﬀect at the concentrations tested. (B) Huh7.5 cells were infected with HCV (JFH-1, multiplicity of infection = 2) and treated with a titration of ToP-DNJ 4 or 50 µm tocopherol 3 for 96 h. Infectious virus titer was measured by TCID50 assay on […]
(§8) tested. In both panels, each data point represent the mean of triplicates, with error bars showing standard error of the mean (GraphPad Prism). […]
(§9) each well was scored as either positive (≥ 5 stained cells) or negative. TCID50 values were calculated according to the method of Reed and Muench.8 […]
(§10) The infectious DENV titres in supernatants collected were evaluated by plaque assay as described previously.9 Brieﬂy, LLC-MK2 cells were seeded in conﬂuent monolayers in a 12-well plate. Four 10-fold dilutions of each supernatant to be analyzed were prepared in minimum essential media (MEM, Gibco), supplemented with 100 µg mL−1 streptomycin, 100 U mL−1 penicillin and 10% (v/v) FCS. […]
(§11) After 1 d, plaques were observed and counted from the underside of the plate by eye. […]

[5] = tested on: HCV (JFH-1) in Huh7.5 cells; assay: HCV antiviral assay in Huh7.5 cells (infectious titer by TCID50 assay); assay type: cell-based, hepatitis C virus; details: MOI 2, 96 h, titration of 4 or 50 µm of 3
Description: as §5, §6, §7, §8
Huh7.5 cells were seeded in a 96-well plate at a density of 5× 10^3 cells/well in 100 µL growth media. […] The supernatant was harvested, and infectious viral titre assessed immediately in the TCID50 assay.
Huh7.5 cells were seeded in a 96-well plate at a density of 2× 10^4 cells/well in 100 µL of growth media and incubated for 18 h. The supernatants to be evaluated were diluted 1:10 in growth media, and 7 serial half-log10 dilutions were subsequently prepared in the same media. […]
as §9

[6] = tested on: DENV2 strain 16681 in primary human MDMΦ; assay: DENV primary MDMΦ antiviral assay (infectious titer by plaque assay); assay type: cell-based, dengue virus; details: dengue-infected MDMΦ, 7 donors
Description: each well was scored as either positive (≥ 5 stained cells) or negative. TCID50 values were calculated according to the method of Reed and Muench.8
5.7 DENV Primary MDMΦ Antiviral Assay
DENV2 strain 16681 (a gift from Prof. E. Gould, Centre for Ecology and Hydrology, Oxford, United Kingdom) was propagated in the C6/36 cell line. In the antiviral assay, MDMΦ cells (7 donors) were seeded in a 24-well plate at a density of 1× 10^6 cells/well in 1 mL of growth media. The cells were inoculated for 2 h with DENV2 16681 strain at an MOI of 1. […]
as §10, §11
18 healthy male BALB/c mice (8 – 12 weeks old) weighing between 20 and 35 g were procured from ACTREC, Mumbai, India. […] Temperature and humidity were recorded by an auto-controlled data logging system and maintained at 22± 3◦C and 55± 15% humidity, respectively. […]

[7] = set-up: method as in PMID 15522126; details: cited from earlier work

SMILES: OC[C@H]1NC[C@H](O)[C@@H](O)[C@@H]1O [Compound 1, D-1-deoxynojirimycin, reference compound]
- IC50 (Rat intestinal maltase): 160 nM
- IC50 [1]: 2200 nM
- IC50 [2]: 790 nM
- IC50 [3]: 16000 nM

SMILES: Cc1c(C)c2c(c(C)c1O)CCC(C)(CCCC(C)CCCC(C)CCCC(C)C)O2 [Compound 3, D-(+)-α-tocopherol, reference compound]
- anti-DENV effect (infectious virus titer) [4]: Neither 4 nor 3 showed an anti-
- anti-HCV effect (infectious virus titer) [5]: Neither 4 nor 3 showed an anti-HCV eﬀect
- antiviral effect on infectious virus titer [6]: no antiviral effect
- increase of plasma levels when consumed with a lipid-rich meal [7]: 10 fold

Source: PMC5824344 (ACS Chemical Biology, 2017)
